Measured values published in patent publication US20090312414A1, “Treatment Of Lower Urinary Tract Dysfunction With CB2-Receptor-Selective Agonists” (priority 2008, published 2009).

Test system: conscious rats treated with cyclophosphamide
Assay: Cystometry in cyclophosphamide-induced model of IC/PBS
Format: in vivo, rat
Conditions: 10 mg/kg IP; for Bladder capacity (BC): CYP-treated rats
Source text: This study involved the determination of the acute effect of the compound of Formula I on bladder function in conscious rats in the cyclophosphamide-induced model of interstitial cystitis/painful bladder syndrome (“IC/PBS”) using cystometry. The clinical use of cyclophosphamide (“CYP”), a chemotherapy drug that is given as a treatment for many types of cancer, can cause inflammation of the bladder lining, inducing acute hemorrhagic cystitis or chronic cystitis, and result in side effects in the bladder that can be seen in patients with IC/PBS. (Levine L A, Richie J P. Urological complications of cyclophosphamide. J Urol. 1989; 141:1063; Stillwell T J, Benson R C. Cyclophosphamide-induced cystitis. A review of 100 patients. Cancer. 1988; 61:451). The cystitis is not caused by CYP itself, but to acrolein, a toxic CYP metabolite produced by microsomal metabolism that is eliminated by the bladder (Levine L A, Richie J P. Urological complications of cyclophosphamide. J Urol. 1989; 141:1063). In rats, IP administration of CYP induces bladder inflammation and disrupts the urothelial lining, increasing afferent nerve sensitivity and leading to bladder overactivity. Bladder weight is increased due to the inflammation, and bladder capacity is decreased (Corrow K A, Vizzard M A. Phosphorylation of extracellular signal-regulated kinases in urinary bladder in rats with cyclophosphamide-induced cystitis. Am J Physiol. 2007; 293:R125; Lecci A, Birder L A, Meini S, Catalioto R-M, Tramontana M, Giuliani S, Criscuoli M, Maggi C A. Pharmacological evaluation of the role of cyclooxygenase isoenzymes on the micturition reflex following experimental cystitis in rats. Br J Pharmacol. 2000; 130:331).
Male Sprague Dawley rats, weighing 250 g, were maintained under standard laboratory conditions with a 12:12 light/dark cycle and free access to food pellets and water. For surgical procedures, the rats were anesthetized with IP administration of Equinthensin solution (3 ml/kg).
The bladder was exposed via a mid-line incision of the lower abdomen, and the bladder was freed from adhering tissues and emptied. A saline-filled polyethylene catheter (0.58 mm ID and 0.96 mm OD) was implanted in the bladder via an incision at the bladder dome and sutured in place with silk thread. For IV compound administration, a similar PE catheter filled with saline containing sodium heparin (40 IU/ml) was inserted into a jugular vein. The cannulas were exteriorized through a subcutaneous tunnel in the retroscapular area and are connected with a plastic adaptor in order to avoid removal by the animal. […]
Bladder capacity (“BC”) and micturition pressure (“MP”) were the urodynamic parameters evaluated from the cystometrogram. […]

CCCCCCC(C)(C)c1cc(O)c([C@H]2CC(=O)[C@H]3C[C@@H]2C3(C)C)c(OC(=O)/C=C/C(=O)O)c1 [Formula I]
Reduction of BC compared to pre-CYP treatment levels (26 hr time point): 29% | Reduction of BC compared to pre-CYP treatment levels (28 hr time point): 21% | Bladder capacity (BC) (2 hr post treatment (26 hr time point)): 0.57 ± 0.06 mL | Bladder capacity (BC) (4 h after administration (28 hr time point)): 0.63 ± 0.09 mL
